Series [1] is described as follows: Mold dissection for tip length and shell length (RTM-209). It counts as physicochemical. The conditions noted are these: comparison between GLP-1 tip formulations. The protocol:
Mold Dissection for Tip Length (RTM-209): The mold dissection method uses magnified images of sectioned molds to obtain measurements and morphology of the dried tips in the molds. After tip printing and drying, a mold is cross-sectioned with a razor blade in between rows of needles. The dried tips are imaged within the needle cavities using a microscope. The tip overall length and shell length are measured by image processing. The image scale is calibrated using a stage micrometer, and lengths in micrometers are calculated from the lengths measured in pixels. The shell length as a portion of overall length is an indication of consolidation. Minimal shell length, corresponding to maximum consolidation, is preferred.

Series [2] can be described thus: Microneedle mechanical strength, Instron compression (crush) test (TM-404). It counts as physicochemical. The note with it: for Tip strength (comparison in words): comparison between GLP-1 tip formulations.

“Also recorded” adds a separate entry of the source.

Regarding `[Cl-].[Cl-].[Mg+2]` [MgCl2], the “Tip length / shell length / Tip consolidation (comparison in words)” value in series [1] is given as “also improved Tip consolidation”.

`[Cl-].[Na+]` [NaCl]: the “Tip length / shell length / Tip consolidation (comparison in words)” value in series [1] is “led to better consolidation of the Tips; also recorded: significantly reduced the shell length and improved the % consolidation of the Tip”. The “Tip strength (comparison in words)” value in series [2] is given as “comparable”.

Turning to `O=C(O)[C@@H]1CCCN1` [Proline], in series [1], the “Tip length / shell length / Tip consolidation (comparison in words)” value is “did improve Tip consolidation”. In series [2] (GLP-086, higher (3%) concentration of Proline vs feasibility (control) formulation), this compound gave a strength per needle of over 0.6 N/needle. The “Tip strength (comparison in words)” value in series [2] was “significantly improves the mechanical strength of GLP-1 containing needles”.

With `Cl.NC(CO)(CO)CO` [Tris-HCl], the “Tip length / shell length / Tip consolidation (comparison in words)” value in series [1] was “comparable to MOPS in terms of Tip length and strength”. In addition, in series [2], the “Tip strength (comparison in words)” value is “comparable to MOPS in terms of Tip length and strength”.

The values are drawn from patent US12636250B2, “Microneedle array patches (MAPs), systems, and methods for manufacturing and using same” (Terrestrial Bio, Inc., priority 2024, dated 2026).
